16 compounds from patent publication US20230122344A1, “ANTAGONISTS OF THE MUSCARINIC ACETYLCHOLINE RECEPTOR M4” (Vanderbilt University, priority 2019, published 2023) can be followed below.

This test has as its target T1, Human M4 (Homo sapiens, UniProt P08173).
T1 construct: expressed in transfected cells; host or cells: CHO-K1 (ATCC), co-transfected with chimeric G protein Gqi5
T1 sequence (P08173 1-479): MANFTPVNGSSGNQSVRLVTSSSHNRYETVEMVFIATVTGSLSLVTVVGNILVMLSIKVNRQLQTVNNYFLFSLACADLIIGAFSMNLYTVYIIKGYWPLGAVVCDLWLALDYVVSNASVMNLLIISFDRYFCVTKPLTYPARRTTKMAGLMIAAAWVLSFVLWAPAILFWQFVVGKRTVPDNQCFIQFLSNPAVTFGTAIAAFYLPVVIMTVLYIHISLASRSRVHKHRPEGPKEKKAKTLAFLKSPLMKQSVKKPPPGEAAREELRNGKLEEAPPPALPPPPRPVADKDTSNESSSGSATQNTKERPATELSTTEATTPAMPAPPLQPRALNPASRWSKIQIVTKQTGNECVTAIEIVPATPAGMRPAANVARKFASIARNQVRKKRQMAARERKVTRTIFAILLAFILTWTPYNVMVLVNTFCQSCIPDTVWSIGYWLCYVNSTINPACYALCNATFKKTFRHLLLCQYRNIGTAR
The experiment in a line: mAChR M4 cell-based functional assay (calcium flux, antagonism of EC80 acetylcholine response). The following applies: M4/Gqi5/CHO-K1 cells; for remaining activity at 30 µM: CHO-K1, % ACh maximum at 30 μM, read-out: Human M4 Emin; for IC50: decrease of response elicited by EC80 acetylcholine. Here is the method:
Human or rat M4 cDNA, along with the chimeric G protein Gqi5, were transfected into Chinese hamster ovary (CHO-K1) cells purchased from the American Type Culture Collection using Lipofectamine2000. M4/Gqi5/CHO cells were grown in Ham's F-12 medium containing 10% heat-inactivated fetal bovine serum (FBS), 20 mM HEPES, 500 μg/mL G418 sulfate, and 200 μg/mL Hygromycin B.
For high throughput measurement of agonist-evoked increases in intracellular calcium, CHO-K1 cells stably expressing muscarinic receptors were plated in growth medium lacking G418 and hygromycin at 15,000 cells/20 μL/well in Greiner 384-well black-walled, tissue culture (TC)-treated, clear-bottom plates (VWR). Cells were incubated overnight at 37° C. and 5% CO2. The next day, cells were washed using an ELX 405 (BioTek) with assay buffer; the final volume was then aspirated to 20 μL. Next, 20 μL of a 2.3 μM stock of Fluo-4/acetoxymethyl ester (Invitrogen, Carlsbad, Calif.), prepared as a 2.3 mM stock in DMSO and mixed in a 1:1 ratio with 10% (w/v) Pluronic F-127 and diluted in assay buffer, was added to the wells and the cell plates were incubated for 50 min at 37° C. and 5% CO2. Dye was removed by washing with the ELX 405 and the final volume was aspirated to 20 μL. Compound master plates were formatted in a 10 point concentration-response curve (CRC) format (1:3 dilutions) in 100% DMSO with a starting concentration of 10 or 1 mM using a BRAVO liquid handler (Agilent). Test compound CRCs were then transferred to daughter plates (240 nL) using the Echo acoustic plate reformatter (Labcyte, Sunnyvale, Calif.) and then diluted into assay buffer (40 μL) to a 2× stock using a Thermo Fisher Combi (Thermo Fisher Scientific, Waltham, Mass.).
Calcium flux was measured using the Functional Drug Screening System (FDSS) 6000 or 7000 (Hamamatsu Corporation, Tokyo, Japan) as an increase in the fluorescent static ratio. Compounds were applied to cells (20 μL, 2×) using the automated system of the FDSS at 2 seconds into the protocol and the data were collected at 1 Hz. At 143 s, 10 μL of an EC20 concentration of the muscarinic receptor agonist acetylcholine was added (5×), followed by the addition of 12 μL of an EC80 concentration of acetylcholine at the 268 s time point (5×). Agonist activity was analyzed as a concentration-dependent increase in calcium mobilization upon compound addition. Positive allosteric modulator activity was analyzed as a concentration-dependent increase in the EC20 acetylcholine response. Antagonist activity was analyzed as a concentration-dependent decrease in the EC80 acetylcholine response; for the purposes of the tables herein, an IC50 (inhibitory concentration 50) was calculated as a concentration-dependent decrease of the response elicited by an EC80 concentration of acetylcholine. Concentration-response curves were generated using a four-parameter logistical equation in XLFit curve fitting software (IDBS, Bridgewater, N.J.) for Excel (Microsoft, Redmond, Wash.) or Prism (GraphPad Software, Inc., San Diego, Calif.) or the Dotmatics software platform (Dotmatics, Bishop's Stortford, UK).
Compounds were synthesized as described above. Activity (IC50 and Emin) was determined in the mAChR M4 cell-based functional assay as described above and the data are shown in Table 2.

Turning to `Fc1cc(F)c(F)c(-c2nnc(N[C@H]3C[C@@H]4CN(CC5CCCCO5)C[C@@H]4C3)cc2C(F)F)c1` (single isomer, unassigned) [compound 46], the remaining activity at 30 µM came out at 3% and the IC50 is 1.98 nM.

On to `Cc1cc(N[C@H]2C[C@@H]3CN(CC4CCOCC4)C[C@@H]3C2)nnc1-c1cc(F)cc(F)c1F` [compound 35, (3aR,5s,6aS)-N-(5-methyl-6-(2,3,5-trifluorophenyl)pyridazin-3-yl)-2-((tetrahydro-2H-pyran-4-yl)methyl)octahydrocyclopenta[c]pyrrol-5-amine], for which the remaining activity at 30 µM came to 3% and the half-inhibitory concentration (IC50) was found to be 0.5 nM.

In the case of `Cc1ccc(F)cc1-c1nnc(N[C@H]2C[C@@H]3CN(CC4CCOCC4)C[C@@H]3C2)cc1C(F)F` [compound 43, (3aR,5s,6aS)-N-(5-(difluoromethyl)-6-(5-fluoro-2-methylphenyl)pyridazin-3-yl)-2-((tetrahydro-2H-pyran-4-yl)methyl)octahydrocyclopenta[c]pyrrol-5-amine], the remaining activity at 30 µM amounted to 2% and the IC50 amounted to 0.57 nM.

Take `Cc1cc(N[C@H]2C[C@@H]3CN(CC4CCOCC4)C[C@@H]3C2)nnc1-c1ccc2nn(C)cc2c1C` [compound 16, (3aR,5s,6aS)-N-(6-(2,4-dimethyl-2H-indazol-5-yl)-5-methylpyridazin-3-yl)-2-((tetrahydro-2H-pyran-4-yl)methyl)octahydrocyclopenta[c]pyrrol-5-amine]: the remaining activity at 30 µM stood at 3% and the IC50 was found to be 1.08 nM.

Regarding `Fc1cc(F)c(F)c(-c2nnc(N[C@H]3C[C@@H]4CN(CC5CCCOC5)C[C@@H]4C3)cc2C(F)F)c1` (single isomer, unassigned) [compound 48], the remaining activity at 30 µM worked out at 2% and the IC50 was 1.3 nM.

As for `Fc1ccc(F)c(-c2cc(C(F)F)c(N[C@H]3C[C@@H]4CN(CC5CCOCC5)C[C@@H]4C3)nn2)c1` [compound 58, (3aR,5s,6aS)-N-(4-(difluoromethyl)-6-(2,5-difluorophenyl)pyridazin-3-yl)-2-((tetrahydro-2H-pyran-4-yl)methyl)octahydrocyclopenta[c]pyrrol-5-amine], the remaining activity at 30 µM came to 3% and the half-inhibitory concentration (IC50) was determined as 6.42 nM.

Regarding `Cc1c(-c2cc(F)ccc2F)nnc(N[C@H]2C[C@@H]3CN(C[C@H]4CC5CCC4O5)C[C@@H]3C2)c1C#N` (stereo partly drawn) [compound 66, 3-(((3aR,5s,6aS)-2-(((2R)-7-oxabicyclo[2.2.1]heptan-2-yl)methyl)octahydrocyclopenta[c]pyrrol-5-yl)amino)-6-(2,5-difluorophenyl)-5-methylpyridazine-4-carbonitrile], the remaining activity at 30 µM worked out at 3% and the concentration for half-maximal inhibition (IC50) was determined as 17.9 nM.

Regarding `Cc1cc(N[C@H]2C[C@@H]3CN(CC4CCOCC4)C[C@@H]3C2)nnc1-c1cc(F)ccc1Cl` [compound 14, (3aR,5s,6aS)-N-(6-(2-chloro-5-fluorophenyl)-5-methylpyridazin-3-yl)-2-((tetrahydro-2H-pyran-4-yl)methyl)octahydrocyclopenta[c]pyrrol-5-amine], the remaining activity at 30 µM worked out at 3% and the IC50 amounted to 2.36 nM.

Regarding `Cc1ccc(F)cc1-c1cc(C(F)F)c(N[C@H]2C[C@@H]3CN(CC4CCOCC4)C[C@@H]3C2)nn1` [compound 59, (3aR,5s,6aS)-N-(4-(difluoromethyl)-6-(5-fluoro-2-methylphenyl)pyridazin-3-yl)-2-((tetrahydro-2H-pyran-4-yl)methyl)octahydrocyclopenta[c]pyrrol-5-amine], the remaining activity at 30 µM stood at 3% and the IC50 amounted to 1.2 nM.

As to `Cc1ccc(C(F)(F)F)cc1-c1cc(C(F)F)c(N[C@H]2C[C@@H]3CN(CC4CCOCC4)C[C@@H]3C2)nn1` [compound 82, (3aR,5s,6aS)-N-(4-(difluoromethyl)-6-(2-methyl-5-(trifluoromethyl)phenyl)pyridazin-3-yl)-2-((tetrahydro-2H-pyran-4-yl)methyl)octahydrocyclopenta[c]pyrrol-5-amine], the remaining activity at 30 µM came out at 4% and the 50% inhibitory concentration (IC50) was 49 nM.

Consider `Cc1c(-c2ccc(F)cc2)nnc(N[C@H]2C[C@@H]3CN(CC4CCOCC4)C[C@@H]3C2)c1C#N` [compound 73, 6-(4-fluorophenyl)-5-methyl-3-(((3aR,5s,6aS)-2-((tetrahydro-2H-pyran-4-yl)methyl)octahydrocyclopenta[c]pyrrol-5-yl)amino)pyridazine-4-carbonitrile], for which the remaining activity at 30 µM worked out at 4% and the half-inhibitory concentration (IC50) is 3.43 nM.

Turning to `Cc1c(-c2ccc3nn(C)cc3c2)nnc(N[C@H]2C[C@@H]3CN(CC4CCOCC4)C[C@@H]3C2)c1C#N` [compound 72, 5-methyl-6-(2-methyl-2H-indazol-5-yl)-3-(((3aR,5s,6aS)-2-((tetrahydro-2H-pyran-4-yl)methyl)octahydrocyclopenta[c]pyrrol-5-yl)amino)pyridazine-4-carbonitrile], the remaining activity at 30 µM is 4% and the IC50 worked out at 0.91 nM.

With `[2H]C([2H])(C1CCOCC1)N1C[C@H]2C[C@H](Nc3nnc(-c4cc(F)ccc4F)cc3C3CC3)C[C@H]2C1` [compound 27, (3aR,5s,6aS)-N-(4-cyclopropyl-6-(2,5-difluorophenyl)pyridazin-3-yl)-2-((tetrahydro-2H-pyran-4-yl)methyl-d2)octahydrocyclopenta[c]pyrrol-5-amine], the remaining activity at 30 µM turned out to be 4% and the IC50 came to 719 nM.

Turning to `[2H]C([2H])(C1CCOCC1)N1C[C@H]2C[C@H](Nc3cc(C4(C(F)(F)F)CC4)c(-c4cc(F)cc(F)c4F)nn3)C[C@H]2C1` [compound 39, (3aR,5s,6aS)-2-((tetrahydro-2H-pyran-4-yl)methyl-d2)-N-(5-(1-(trifluoromethyl)cyclopropyl)-6-(2,3,5-trifluorophenyl)pyridazin-3-yl)octahydrocyclopenta[c]pyrrol-5-amine], the remaining activity at 30 µM was 3% and the IC50 was 17.9 nM.

Regarding `[2H]C([2H])(C1CCOCC1)N1C[C@H]2C[C@H](Nc3nnc(-c4cc(F)ccc4F)cc3C)C[C@H]2C1` [compound 11, (3aR,5s,6aS)-N-(6-(2,5-difluorophenyl)-4-methylpyridazin-3-yl)-2-((tetrahydro-2H-pyran-4-yl)methyl-d2)octahydrocyclopenta[c]pyrrol-5-amine], the remaining activity at 30 µM was 3% and the IC50 was 1 nM.

Regarding `[2H]C([2H])(C1CCOCC1)N1C[C@H]2C[C@H](Nc3nnc(-c4cc(F)cc(F)c4F)cc3C3CC3(F)F)C[C@H]2C1` (stereo partly drawn) [compound 33, (3aR,5s,6aS)-N-(4-(2,2-difluorocyclopropyl)-6-(2,3,5-trifluorophenyl)pyridazin-3-yl)-2-((tetrahydro-2H-pyran-4-yl)methyl-d2)octahydrocyclopenta[c]pyrrol-5-amine], the remaining activity at 30 µM worked out at 3% and the IC50 worked out at 6.4 nM.
